Laboratory results reported in paper PMC9412374, “Design, Synthesis, and Development of pyrazolo[1,5-a]pyrimidine Derivatives as a Novel Series of Selective PI3Kδ Inhibitors: Part I—Indole Derivatives” (Pharmaceuticals, 2022).
Where “and” joins values, the source holds several entries; their conditions need not be identical. Equal values may be shown once. Read-outs that look alike come from different tables or passages of the source.

Columns and labels:
PI3Kδ = biological target: T1, PI3Kδ (Homo sapiens, UniProt O00329); assay: In vitro kinase inhibition assay for PI3K (ADP-Glo), PI3Kδ; format: biochemical; details: recombinant kinase, mean of two independent experiments
T1 construct: purchased Merck Millipore
T1 sequence (P27986 whole entry): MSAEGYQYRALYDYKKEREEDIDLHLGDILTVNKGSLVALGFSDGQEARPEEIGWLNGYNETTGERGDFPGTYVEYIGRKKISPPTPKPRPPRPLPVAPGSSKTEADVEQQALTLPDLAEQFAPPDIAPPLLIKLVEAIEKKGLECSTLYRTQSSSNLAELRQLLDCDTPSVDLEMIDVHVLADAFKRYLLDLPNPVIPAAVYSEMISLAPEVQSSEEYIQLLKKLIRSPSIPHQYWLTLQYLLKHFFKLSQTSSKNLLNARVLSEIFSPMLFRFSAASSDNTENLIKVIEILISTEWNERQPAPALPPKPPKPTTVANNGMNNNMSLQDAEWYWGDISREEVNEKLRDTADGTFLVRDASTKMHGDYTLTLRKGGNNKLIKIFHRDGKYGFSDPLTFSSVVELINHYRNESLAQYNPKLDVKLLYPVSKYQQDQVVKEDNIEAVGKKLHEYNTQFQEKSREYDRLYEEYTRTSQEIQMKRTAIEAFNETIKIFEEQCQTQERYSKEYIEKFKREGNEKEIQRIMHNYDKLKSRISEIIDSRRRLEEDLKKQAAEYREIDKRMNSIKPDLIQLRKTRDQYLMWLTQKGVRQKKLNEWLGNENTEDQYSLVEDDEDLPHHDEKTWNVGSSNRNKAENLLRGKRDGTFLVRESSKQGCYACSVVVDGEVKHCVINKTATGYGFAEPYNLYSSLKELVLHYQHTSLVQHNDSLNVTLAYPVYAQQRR
T1 sequence (O00329 whole entry): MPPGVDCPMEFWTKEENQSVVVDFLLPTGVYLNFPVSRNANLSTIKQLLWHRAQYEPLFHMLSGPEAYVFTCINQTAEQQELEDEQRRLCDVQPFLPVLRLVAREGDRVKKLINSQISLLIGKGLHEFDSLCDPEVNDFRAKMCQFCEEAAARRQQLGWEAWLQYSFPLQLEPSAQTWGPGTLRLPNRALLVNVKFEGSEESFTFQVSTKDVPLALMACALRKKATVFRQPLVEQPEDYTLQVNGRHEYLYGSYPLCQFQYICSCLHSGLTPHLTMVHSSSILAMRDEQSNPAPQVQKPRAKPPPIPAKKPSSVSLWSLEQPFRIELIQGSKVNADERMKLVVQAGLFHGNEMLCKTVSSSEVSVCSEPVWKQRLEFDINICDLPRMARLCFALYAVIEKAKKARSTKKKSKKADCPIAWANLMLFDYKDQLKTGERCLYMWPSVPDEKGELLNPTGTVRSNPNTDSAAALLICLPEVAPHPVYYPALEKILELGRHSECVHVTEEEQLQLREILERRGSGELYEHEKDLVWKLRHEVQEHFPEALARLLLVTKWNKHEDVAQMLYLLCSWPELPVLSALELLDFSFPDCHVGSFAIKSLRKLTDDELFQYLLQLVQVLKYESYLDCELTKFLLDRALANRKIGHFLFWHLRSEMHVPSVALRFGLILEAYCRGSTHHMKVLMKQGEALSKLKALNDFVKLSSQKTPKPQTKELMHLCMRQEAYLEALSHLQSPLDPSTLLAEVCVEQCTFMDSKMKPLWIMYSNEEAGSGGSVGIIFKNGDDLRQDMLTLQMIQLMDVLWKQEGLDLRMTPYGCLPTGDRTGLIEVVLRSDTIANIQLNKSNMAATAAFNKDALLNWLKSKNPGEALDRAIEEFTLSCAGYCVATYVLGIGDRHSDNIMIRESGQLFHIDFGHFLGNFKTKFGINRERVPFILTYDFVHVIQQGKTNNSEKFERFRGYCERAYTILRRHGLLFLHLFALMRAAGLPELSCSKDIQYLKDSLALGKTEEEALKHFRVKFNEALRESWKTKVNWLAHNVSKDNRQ
Experimental: Tested compounds were dissolved in 100% DMSO, and obtained solutions were serially diluted in 1× reaction buffer. The recombinant kinase solution was diluted in a reaction mixture comprising 5× reaction buffer, respective compound solution (1 mM sodium diacetate 4,5-bisphosphate phosphatidylinositol (PIP2) solution in 40 mM Tris buffer), and water. In a 96-wells plate, 5 μL of compound solutions and 15 μL of the kinase solution in the reaction mixture were added per well. To initiate the interaction of chemical compounds to be tested with the enzyme, the plate was incubated for 10 min at a suitable temperature in a plate thermostat with orbital shaking at 600 rpm. Negative control wells contained all the above reagents except tested compound and kinase, and positive control wells contained all the above reagents except tested compounds. […] Subsequently, the plate was incubated for 1 h at 25 or 30 °C (depending on the PI3K isoform tested) in a plate thermostat with orbital shaking of the plate contents at 600 rpm. The reaction conditions are combined in the table below (Table 6).
Detection of ADP formed in the enzymatic reaction was then performed using ADP-Glo Kinase Assay™ (Promega, Madison, WI, USA). To the wells of a 96-well plate, 25 μL of ADP-Glo Reagent™ was added, and the plate was incubated for 40 min at 25 °C in a plate thermostat with orbital shaking at 600 rpm. Then 50 μL of Kinase Detection Reagent were added to each well, and the plate was incubated for 40 min at 25 °C in a plate thermostat with orbital shaking at 600 rpm. Once the incubation was complete, the luminescence intensity was measured using a Victor Light luminometer (Perkin Elmer, Inc., Waltham, MA, USA). IC50 values were determined based on luminescence intensity measured in wells containing tested compounds at different concentrations in relation to control wells. […] Each compound was tested at least in quadruplicates (4 wells) on two 96-well plates utilizing at least 4 wells for each control.

PI3Kα = biological target: T2, PI3Kα (Homo sapiens, UniProt P42336); assay: In vitro kinase inhibition assay for PI3K (ADP-Glo), PI3Kα; format: biochemical; details: for IC50: recombinant kinase, ADP-Glo, mean of two independent experiments; for Fold Selectivity α/δ: ratio of IC50 PI3Kα to IC50 PI3Kδ
T2 construct: purchased Carna Biosciences
T2 sequence (P42336 whole entry): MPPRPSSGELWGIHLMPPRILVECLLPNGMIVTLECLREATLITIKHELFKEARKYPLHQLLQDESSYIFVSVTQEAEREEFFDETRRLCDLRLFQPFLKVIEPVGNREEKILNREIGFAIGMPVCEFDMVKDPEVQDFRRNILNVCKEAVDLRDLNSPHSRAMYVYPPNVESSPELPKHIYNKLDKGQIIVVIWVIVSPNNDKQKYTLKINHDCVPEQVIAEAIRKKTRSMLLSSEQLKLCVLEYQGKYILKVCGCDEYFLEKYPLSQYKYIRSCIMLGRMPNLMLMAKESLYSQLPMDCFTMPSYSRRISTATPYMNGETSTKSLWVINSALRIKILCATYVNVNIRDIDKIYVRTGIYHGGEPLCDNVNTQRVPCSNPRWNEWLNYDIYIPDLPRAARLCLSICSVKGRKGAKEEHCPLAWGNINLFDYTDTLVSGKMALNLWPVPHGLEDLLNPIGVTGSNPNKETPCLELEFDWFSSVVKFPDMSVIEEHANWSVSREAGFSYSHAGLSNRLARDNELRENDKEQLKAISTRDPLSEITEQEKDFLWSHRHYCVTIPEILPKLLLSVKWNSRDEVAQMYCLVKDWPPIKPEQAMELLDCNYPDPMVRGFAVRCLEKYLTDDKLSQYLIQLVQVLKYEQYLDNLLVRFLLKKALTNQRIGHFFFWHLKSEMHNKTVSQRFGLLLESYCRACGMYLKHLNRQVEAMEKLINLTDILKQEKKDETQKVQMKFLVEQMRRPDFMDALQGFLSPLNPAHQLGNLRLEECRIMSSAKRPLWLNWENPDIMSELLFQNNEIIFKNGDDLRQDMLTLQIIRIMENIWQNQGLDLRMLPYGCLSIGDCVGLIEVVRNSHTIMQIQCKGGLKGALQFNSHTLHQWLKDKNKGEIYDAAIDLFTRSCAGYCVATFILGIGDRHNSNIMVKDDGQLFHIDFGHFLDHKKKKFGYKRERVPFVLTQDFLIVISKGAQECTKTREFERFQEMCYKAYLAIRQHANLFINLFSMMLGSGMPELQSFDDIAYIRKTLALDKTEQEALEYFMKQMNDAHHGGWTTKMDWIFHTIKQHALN
T2 sequence (P27986 whole entry partner): as the sequence (P27986 whole entry) above
Experimental: Tested compounds were dissolved in 100% DMSO, and obtained solutions were serially diluted in 1× reaction buffer. The recombinant kinase solution was diluted in a reaction mixture comprising 5× reaction buffer, respective compound solution (1 mM sodium diacetate 4,5-bisphosphate phosphatidylinositol (PIP2) solution in 40 mM Tris buffer), and water. In a 96-wells plate, 5 μL of compound solutions and 15 μL of the kinase solution in the reaction mixture were added per well. To initiate the interaction of chemical compounds to be tested with the enzyme, the plate was incubated for 10 min at a suitable temperature in a plate thermostat with orbital shaking at 600 rpm. Negative control wells contained all the above reagents except tested compound and kinase, and positive control wells contained all the above reagents except tested compounds. The enzymatic reaction was initiated by adding 5 μL of 150 μM ATP solution. Subsequently, the plate was incubated for 1 h at 25 or 30 °C (depending on the PI3K isoform tested) in a plate thermostat with orbital shaking of the plate contents at 600 rpm. The reaction conditions are combined in the table below (Table 6).
Detection of ADP formed in the enzymatic reaction was then performed using ADP-Glo Kinase Assay™ (Promega, Madison, WI, USA). To the wells of a 96-well plate, 25 μL of ADP-Glo Reagent™ was added, and the plate was incubated for 40 min at 25 °C in a plate thermostat with orbital shaking at 600 rpm. Then 50 μL of Kinase Detection Reagent were added to each well, and the plate was incubated for 40 min at 25 °C in a plate thermostat with orbital shaking at 600 rpm. Once the incubation was complete, the luminescence intensity was measured using a Victor Light luminometer (Perkin Elmer, Inc., Waltham, MA, USA). IC50 values were determined based on luminescence intensity measured in wells containing tested compounds at different concentrations in relation to control wells. These values were calculated with Graph Pad 5.03 software by fitting the curve using non-linear regression. Each compound was tested at least in quadruplicates (4 wells) on two 96-well plates utilizing at least 4 wells for each control. Averaged results of inhibition activity respective to specific isoforms of PI3K kinases for tested compounds are presented as IC50 values in Table 1, Table 2, Table 3 and Table 4.

Row | Structure (SMILES) | IC50 (PI3Kδ; read-out: IC50 PI3Kδ) | IC50 (PI3Kα; IC50 PI3Kα) [µM] | Fold Selectivity α/δ (PI3Kα) | IC50 (PI3Kδ; read-out: IC50 PI3K δ) [µM] | IC50 (PI3Kα; IC50 PI3K α) [µM]
1 | Cc1cc2nc(-n3c(C)nc4ccccc43)cc(N3CCOCC3)n2n1 [Compound 5, 2-methyl-5-(2-methylbenzimidazol-1-yl)-7-(morpholin-4-yl)pyrazolo[1,5-a]pyrimidine] | 3.56 µM | 35.1 | 9.9 | – | –
2 | CCc1nc2ccccc2n1-c1cc(N2CCOCC2)n2nc(C)cc2n1 [Compound 6, 2-methyl-5-(2-ethylbenzimidazol-1-yl)-7-(morpholin-4-yl)pyrazolo[1,5-a]pyrimidine] | 2.3 µM | 25.9 | 11 | – | –
3 | Cc1cc2nc(-n3c(C(F)F)nc4ccccc43)cc(N3CCOCC3)n2n1 [Compound 7, 2-methyl-5-(2-difluoromethylbenzimidazol-1-yl)-7-(morpholin-4-yl)pyrazolo[1,5-a]pyrimidine] | 0.47 µM and 0.475 µM | 1.06 | 2.2 | – | –
4 | Cc1cc(Nc2cc(N3CCOCC3)n3nc(C)cc3n2)[nH]n1 [Compound 9, 3-methyl-N-[2-methyl-7-(morpholin-4-yl)pyrazolo[1,5-a]pyrimidin-5-yl]-1H-pyrazol-5-amine] | 43.6 µM | > 60 | >1.4 | – | –
5 | Cc1cc2nc(-c3cn[nH]c3)cc(N3CCOCC3)n2n1 [Compound 10, 2-methyl-7-(morpholin-4-yl)-5-(1H-pyrazol-4-yl)pyrazolo[1,5-a]pyrimidine] | 12.7 µM | 36.2 | 2.9 | – | –
6 | Cc1cc2nc(-c3ccc(N)nc3)cc(N3CCOCC3)n2n1 [Compound 11, 2-methyl-7-(morpholin-4-yl)-5-(2-aminopyridin-5-yl)pyrazolo[1,5-a]pyrimidine] | 6.86 µM | 4.64 | 0.7 | – | –
7 | Cc1cc2nc(-c3cccc4[nH]ncc34)cc(N3CCOCC3)n2n1 [Compound 12, 2-methyl-7-(morpholin-4-yl)-5-(1H-indazole-4-yl)pyrazolo[1,5-a]pyrimidine] | 3.85 µM | 4.81 | 1.2 | – | –
8 | Cc1cc2nc(-c3cccc4[nH]ccc34)cc(N3CCOCC3)n2n1 [Compound 13, 2-methyl-7-(morpholin-4-yl)-5-(1H-indole-4-yl)pyrazolo[1,5-a]pyrimidine] | 0.772 µM | 23.5 | 30 | – | –
9 | CS(=O)(=O)N1CCN(Cc2cc3nc(-c4cccc5[nH]ccc45)cc(N4CCOCC4)n3n2)CC1 [Compound 23, 5-(1H-indol-4-yl)-2-((4-(methyl-sulphonyl)piperazin-1-yl)methyl)-7-(morpholin-4-yl)pyrazolo[1,5-a]pyrimidine] | 0.4 µM | 2.35 | 5.8 | 0.402 | 2.35
10 | O[C@@H]1CCN(Cc2cc3nc(-c4cccc5[nH]ccc45)cc(N4CCOCC4)n3n2)C1 [Compound 25] | – | – | – | 1.99 | –
11 | O[C@H]1CCN(Cc2cc3nc(-c4cccc5[nH]ccc45)cc(N4CCOCC4)n3n2)C1 [Compound 26] | – | – | – | 2.21 | –
12 | O=S1(=O)CCN(Cc2cc3nc(-c4cccc5[nH]ccc45)cc(N4CCOCC4)n3n2)CC1 [Compound 27, 2-((1,1-dioxothiomorpholin-1-yl)-methyl)-5-(1H-indol-4-yl)-7-(morpholin-4-yl)pyrazolo[1,5-a]pyrimidine] | – | – | 33 | 0.266 | 8.65
13 | c1cc(-c2cc(N3CCOCC3)n3nc(CN4CCOCC4)cc3n2)c2cc[nH]c2c1 [Compound 28, 5-(1H-indol-4-yl)-7-(morpholin-4-yl)-2-((morpholin-4-yl)methyl)pyrazolo[1,5-a]pyrimidine] | – | – | – | 1.07 | –
14 | CN1CCN(C2CCN(Cc3cc4nc(-c5cccc6[nH]ccc56)cc(N5CCOCC5)n4n3)CC2)CC1 [Compound 29, 5-(1H-indol-4-yl)-2-((4-(4-methylpiperazin-1-yl)piperidin-1-yl)methyl)-7-(morpholin-4-yl)pyrazolo[1,5-a]pyrimidine] | – | – | 301 | 0.052 | 15.6
15 | CCNC(=O)NC1CCN(Cc2cc3nc(-c4cccc5[nH]ccc45)cc(N4CCOCC4)n3n2)CC1 [Compound 30, 3-ethyl-1-(1-((5-(1H-indol-4-yl)-7-(morpholin-4-yl)pyrazolo[1,5-a]pyrimidin-2-yl)methyl)piperidin-4-yl)urea] | – | – | 39 | 0.36 | 14.2
16 | O=C(Nc1ccccc1)NC1CCN(Cc2cc3nc(-c4cccc5[nH]ccc45)cc(N4CCOCC4)n3n2)CC1 [Compound 31, 1-phenyl-3-(1-((5-(1H-indol-4-yl)-7-(morpholin-4-yl)pyrazolo[1,5-a]pyrimidin-2-yl)methyl)piperidin-4-yl)urea] | – | – | – | 0.559 | –
17 | COc1ccc(N2CCN(Cc3cc4nc(-c5cccc6[nH]ccc56)cc(N5CCOCC5)n4n3)CC2)cc1 [Compound 32, 5-(1H-indol-4-yl)-2-((4-(4-methoxyphenyl)piperazin-1-yl)-methyl)-7-(morpholin-4-yl)pyrazolo[1,5-a]pyrimidine] | – | – | 50 | 0.177 | 8.79
18 | CN1CCN(Cc2cc3nc(-c4cccc5[nH]ccc45)cc(N4CCOCC4)n3n2)CC1 [Compound 33, 5-(1H-indol-4-yl)-2-((4-methyl-piperazin-1-yl)methyl)-7-(morpholin-4-yl)pyrazolo[1,5-a]pyrimidine] | – | – | 220 | 0.193 | 42.4
19 | COC(=O)C1CCN(Cc2cc3nc(-c4cccc5[nH]ccc45)cc(N4CCOCC4)n3n2)CC1 [Compound 35, Methyl 1-((5-(1H-indol-4-yl)-7-(morpholin-4-yl)pyrazolo[1,5-a]pyrimidin-2-yl)methyl)piperidin-4-carboxylate] | – | – | 61 | 0.138 | 8.46
20 | c1cc(-c2cc(N3CCOCC3)n3nc(CN4CCN(C5CCCC5)CC4)cc3n2)c2cc[nH]c2c1 [Compound 40, 2-((4-cyclopentylpiperazin-1-yl)methyl)-5-(1H-indol-4-yl)-7-(morpholin-4-yl)pyrazolo[1,5-a]pyrimidine] | – | – | 329 | 0.042 | 13.8
21 | c1cc(-c2cc(N3CCOCC3)n3nc(CN4CCN(C5COC5)CC4)cc3n2)c2cc[nH]c2c1 [Compound 42] | – | – | 334 | 0.056 | 18.7
22 | c1cc(-c2cc(N3CCOCC3)n3nc(CN4CC5CC4CN5C4COC4)cc3n2)c2cc[nH]c2c1 [Compound 43, 5-(1H-indol-4-yl)-2-(((1S, 4S)-2-(oxetan-3-yl)-2,5-diaza-bicyclo [2.2.1]hept-2-yl)methyl)-7-(morpholin-4-yl)pyrazolo[1,5-a]pyrimidine] | – | – | 318 | 0.071 | 22.6
23 | c1cc(-c2cc(N3CCOCC3)n3nc(CN4CCN(CC5CC5)CC4)cc3n2)c2cc[nH]c2c1 [Compound 45, 2-((4-(cyclopropylmethyl)piperazin-1-yl)methyl)-5-(1H-indol-4-yl)-7-(morpholin-4-yl)pyrazolo[1,5-a]pyrimidine] | – | – | 218 | 0.029 | 6.32
